# Measured values taken from US8367687B2, “Pyrazole derivatives” (Novartis AG, priority 2007, dated 2013).
# pIC50: −log10 of the molar value. Where two headings read alike, the source gives them in different places.
# Experiments:
# CDK4 = CDK4 (Homo sapiens, UniProt P11802); assay: CDK4 HTRF; type: biochemical
# CDK2 cyA = CDK2 cyA (Homo sapiens, UniProt P24941); assay: CDK2 cyA IMAP; type: biochemical
# hCDK1/B = hCDK1/B (Homo sapiens, UniProt P06493); assay: hCDK1/B; type: biochemical
# p-pRb/S780 = p-pRb/S780 ELISA Cellular Assay (CDK4 ELISA assay); type: cell-based; settings: cells treated for 24 hrs
# Method: Biological Activity p-pRb/S780 ELISA Cellular Assay
# Maxisorp plates (Nunc 442404) are coated with 50 ul of 1 ug/mL total phospholated Retinoblast Protein (pRb) antibody (4H1 Cell Signaling 9309L) diluted in DPBS (Phosphate Buffered Saline) overnight at 4° C. The next day plates are blocked with Superblock in TBST (Pierce 37535) for one hour to overnight—changing block once during that time. Cells are plated at 50-60% confluency in a 96 well plate (Corning 3585) in 100 uL complete media (media containing fetal bovine serum (Gibco 1600-044), 2 mM L-Glutamine (Gibco 25030), and 1% Penicillin/Streptomycin (Gibco 15140-122) and grown overnight in a humidified chamber at 37° C. and 5% CO2. Compounds (in DMSO) are diluted in media to create a 7 point dilution series of compound with concentrations ranging from 110 uM to 0.027 uM. 10 ul of the diluted compounds are added to the cells, with final concentrations on cells ranging from 10 uM to 0.002 uM. Cells are treated for 24 hrs in a humidified chamber at 37° C. and 5% CO2. Following compound incubation, cells are lysed with 40 uL/well lysis buffer (50 mM Tris-HCL pH 7.5 (Invitrogen 15567-027), 120 mM NaCl (Promega V4221), 1 mM EDTA (Gibco 15575-038), 6 mM EGTA (Fisher 02783-100), 1% Nonidet P40 (Fluka R02771). Plates are placed on Titerplate shaker (Labline model 4625) for 5 minutes at 4° C. to lyse cells. After lysis, 10 ul of cell lysate and 50 ul 1×PBS/10% Superblock (Gibco 10010 and Pierce 37535) is added to each well of the precoated and blocked Maxisorp plate and allowed to bind at room temperature for 2 hours on Oribtron Rotator II (Boekel Industries Model 260250). Plates are then washed 3× with 1×TBST (Teknova T9201) using Biotek platewasher equipped with a Biostack. The final wash is not aspirated. The final wash is removed by flicking off and tapping plate on paper towels. ppRbS780 antibody (Cell Signaling 9307L) is diluted 1:1000 in 1×PBS/10% Superblock (Gibco 10010 and Pierce 37535) and 50 ul is added to each well. Plates are then incubated 1 hour on Oribtron Rotator II (Boekel Industries Model 260250). Plates are then washed as previously described. Goat anti-rabbit HRP (Promega W401B) is diluted 1:2500 1×PBS/10% Superblock (Gibco 10010 and Pierce 37535) and 50 ul is added to each well. Plates are then incubated 30 minutes on Oribtron Rotator II. Plates are then washed as previously described. 50 uL Ultra TMB ELISA (Pierce 34028) is then added to each well. Plates are incubated 5-20 minutes until blue color develops. 50 ul 2M Sulfuric acid (Mallinckrodt 2468-46) is then added to each well to stop the reaction. Absorbance at 450 nm for each plate is read on Spectramax Plus (Molecular Devices).
# [1] = Table 2, read-out: CDK4 HTRF/ IC50
# [2] = Table 2, read-out: CDK2cyA IMAP/ IC50
# [3] = Table 2, read-out: p_pRb Cap EL/ IC50_ppRbinh
# [4] = Table 1, read-out: CDK2 cyA IMAP
# [5] = Table 1, read-out: CDK4 ELISA assay IC50
# hCDK1/B, sequence (P06493 whole entry): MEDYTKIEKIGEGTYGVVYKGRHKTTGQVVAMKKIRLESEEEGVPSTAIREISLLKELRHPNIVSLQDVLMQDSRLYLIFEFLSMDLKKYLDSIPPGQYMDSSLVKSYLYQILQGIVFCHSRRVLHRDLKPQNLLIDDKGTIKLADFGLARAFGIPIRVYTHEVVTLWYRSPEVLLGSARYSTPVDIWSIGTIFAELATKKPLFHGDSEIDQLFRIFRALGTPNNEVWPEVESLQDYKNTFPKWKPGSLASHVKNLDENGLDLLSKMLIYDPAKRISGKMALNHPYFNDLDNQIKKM
# hCDK1/B, sequence (P14635 whole entry partner): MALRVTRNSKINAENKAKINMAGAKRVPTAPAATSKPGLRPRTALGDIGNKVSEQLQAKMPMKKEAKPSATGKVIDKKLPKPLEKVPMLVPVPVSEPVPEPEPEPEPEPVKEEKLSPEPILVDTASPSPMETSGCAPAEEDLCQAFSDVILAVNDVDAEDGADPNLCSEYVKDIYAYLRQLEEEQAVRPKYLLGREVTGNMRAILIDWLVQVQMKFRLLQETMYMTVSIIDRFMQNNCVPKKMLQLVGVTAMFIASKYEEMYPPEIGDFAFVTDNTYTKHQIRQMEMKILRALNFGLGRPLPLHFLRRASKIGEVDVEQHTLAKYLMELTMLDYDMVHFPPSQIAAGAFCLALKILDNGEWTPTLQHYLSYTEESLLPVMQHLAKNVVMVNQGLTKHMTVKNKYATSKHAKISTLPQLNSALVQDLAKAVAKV
# CDK4, sequence (P11802 whole entry): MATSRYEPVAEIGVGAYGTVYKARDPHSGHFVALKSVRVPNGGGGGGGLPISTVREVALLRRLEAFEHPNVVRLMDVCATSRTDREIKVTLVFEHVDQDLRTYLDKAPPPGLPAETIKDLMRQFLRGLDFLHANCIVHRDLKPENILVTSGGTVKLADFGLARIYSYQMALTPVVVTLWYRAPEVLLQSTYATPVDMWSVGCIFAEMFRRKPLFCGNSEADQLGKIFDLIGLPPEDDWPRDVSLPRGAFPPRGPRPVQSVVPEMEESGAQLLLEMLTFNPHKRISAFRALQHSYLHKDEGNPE
# CDK4, sequence (P24385 whole entry partner): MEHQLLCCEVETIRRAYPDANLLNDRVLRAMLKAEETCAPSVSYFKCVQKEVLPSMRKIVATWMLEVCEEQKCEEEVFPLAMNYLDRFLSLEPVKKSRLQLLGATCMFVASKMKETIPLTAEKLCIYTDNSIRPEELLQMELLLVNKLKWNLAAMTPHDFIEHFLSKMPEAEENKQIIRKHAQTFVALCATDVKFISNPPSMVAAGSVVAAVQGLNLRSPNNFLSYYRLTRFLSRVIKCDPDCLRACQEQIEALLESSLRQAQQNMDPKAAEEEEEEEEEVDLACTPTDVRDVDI
pIC50 (CDK4; [1]),pIC50 (CDK2 cyA; [2]),pIC50 (hCDK1/B; Table 2),pIC50 (p-pRb/S780; [3]),"pIC50 (CDK4; Table 1, read-out: CDK4 HTRF)",pIC50 (CDK2 cyA; [4]),pIC50 (hCDK1/B; Table 1),pIC50 (p-pRb/S780; [5]),SMILES
> 5.30,> 5.00,> 5.00,> 4.82,–,–,–,–,CCCCNc1nccc(-c2c[nH]nc2C)n1 [Example 119]
–,–,–,–,> 5.30,≤ 4.82,≤ 4.82,> 4.82,CC(C)c1[nH]ncc1-c1ccnc(NCCN2CCCCC2)c1 [Example 31]
> 6.00,> 5.30,> 5.30,> 4.82,–,–,–,–,Cc1n[nH]cc1-c1ccnc(NC2CCC2)n1 [Example 101]
–,–,–,–,> 5.30,≤ 4.82,≤ 4.82,> 4.82,c1cc(-c2cn[nH]c2C2CCCC2)cc(NCCN2CCCCC2)n1 [Example 61]
–,–,–,–,> 6.30,> 6.30,> 6.30,> 6.00,CC(C)c1[nH]ncc1-c1ccnc(NC2CCC2)c1 [Example 2]
> 5.30,> 5.00,> 5.00,> 4.82,–,–,–,–,Cc1n[nH]cc1-c1ccnc(NCC2CC2)n1 [Example 124]
> 7.00,> 6.30,> 6.30,> 6.00,–,–,–,–,CC(C)c1n[nH]cc1-c1ccnc(NC2CCc3cc(F)ccc32)n1 (centres unmarked) [Example 189]
> 5.30,> 4.82,> 5.00,> 4.82,–,–,–,–,Cc1n[nH]cc1-c1ccnc(NCc2ccccc2)n1 [Example 93]
> 6.30,> 5.30,> 6.00,> 5.00,–,–,–,–,CCC(Nc1nccc(-c2c[nH]nc2C(C)C)n1)c1ccccc1 (centres unmarked) [Example 151]
> 5.00,> 5.00,> 4.82,> 4.82,–,–,–,–,Cc1n[nH]cc1-c1ccnc(NCc2cccnc2)n1 [Example 127]
> 5.30,≤ 4.82,> 5.00,> 4.82,–,–,–,–,CC(C)c1n[nH]cc1-c1ccnc(N[C@H]2CCCc3ccccc32)n1 [Example 178]
> 5.30,≤ 4.82,> 4.82,> 4.82,–,–,–,–,COCCCNc1nccc(-c2c[nH]nc2C)n1 [Example 108]
> 5.30,> 4.82,> 4.82,> 4.82,–,–,–,–,Cc1n[nH]cc1-c1ccnc(NCCOc2ccccc2)n1 [Example 98]
> 4.82,≤ 4.82,≤ 4.82,> 4.82,–,–,–,–,Cc1n[nH]cc1-c1ccnc(NCCCN2CCCC2=O)n1 [Example 131]
> 5.00,≤ 4.82,≤ 4.82,> 4.82,–,–,–,–,Cc1n[nH]cc1-c1ccnc(NCCN2CCOCC2)n1 [Example 99]
> 5.00,≤ 4.82,≤ 4.82,> 4.82,–,–,–,–,Cc1n[nH]cc1-c1ccnc(NCCN2CCCC2)n1 [Example 109]

pIC50 (CDK4; [1]),pIC50 (CDK2 cyA; [2]),pIC50 (hCDK1/B; Table 2),pIC50 (p-pRb/S780; [3]),"pIC50 (CDK4; Table 1, read-out: CDK4 HTRF)",pIC50 (CDK2 cyA; [4]),pIC50 (hCDK1/B; Table 1),pIC50 (p-pRb/S780; [5]),SMILES
> 4.82,≤ 4.82,≤ 4.82,> 4.82,–,–,–,–,Cc1n[nH]cc1-c1ccnc(NCC(=O)OC(C)(C)C)n1 [Example 129]
> 7.00,≤ 4.82,≤ 4.82,> 5.30,–,–,–,–,CC(C)c1n[nH]cc1-c1ccnc(NC2CCC(C)(C)c3ccccc32)n1 (centres unmarked) [Example 188]
> 4.82,≤ 4.82,≤ 4.82,> 4.82,–,–,–,–,COc1cccc(OC)c1CNc1nccc(-c2c[nH]nc2C(C)C)n1 [Example 156]
> 5.30,> 5.00,> 5.00,> 4.82,–,–,–,–,Cc1n[nH]cc1-c1ccnc(NC2CC2)n1 [Example 97]
–,–,–,–,> 5.00,> 5.30,> 5.30,> 5.30,Cc1ccc(CNc2cc(-c3cn[nH]c3C3CCCC3)ccn2)cc1 [Example 64]
> 5.30,> 4.82,> 4.82,> 4.82,–,–,–,–,Cc1n[nH]cc1-c1ccnc(NCc2ccncc2)n1 [Example 104]
–,–,–,–,> 5.30,> 5.00,≤ 4.82,> 4.82,CC(C)c1[nH]ncc1-c1ccnc(NCCN2CCOCC2)c1 [Example 32]
> 4.82,≤ 4.82,≤ 4.82,> 4.82,–,–,–,–,Cc1n[nH]cc1-c1ccnc(NCCCN2CCCC2)n1 [Example 128]
> 5.30,> 4.82,> 4.82,> 4.82,–,–,–,–,Cc1n[nH]cc1-c1ccnc(NCCCO)n1 [Example 121]
> 5.30,> 5.00,> 5.00,> 4.82,–,–,–,–,Cc1n[nH]cc1-c1ccnc(NCc2ccc3c(c2)OCO3)n1 [Example 102]
> 5.30,> 5.00,> 5.30,> 4.82,–,–,–,–,Cc1n[nH]cc1-c1ccnc(NCCc2c[nH]c3ccccc23)n1 [Example 116]
–,–,–,–,> 5.30,≤ 4.82,≤ 4.82,> 4.82,CC(C)c1[nH]ncc1-c1ccnc(NCCCNC2CCCCC2)c1 [Example 51]
–,–,–,–,> 5.30,≤ 4.82,≤ 4.82,> 4.82,CC(C)c1[nH]ncc1-c1ccnc(NCCN2CCCC2)c1 [Example 17]
–,–,–,–,> 5.30,> 5.00,> 5.00,> 4.82,Cc1ccccc1CNc1cc(-c2cn[nH]c2C2CCCCCC2)ccn1 [Example 66]
> 6.00,> 5.30,> 5.00,> 4.82,–,–,–,–,CCC(C)Nc1nccc(-c2c[nH]nc2C)n1 (centres unmarked) [Example 110]
–,–,–,–,> 5.30,> 5.30,> 5.30,> 7.00,CC(C)c1[nH]ncc1-c1ccnc(NCc2cccc(C(F)(F)F)c2)c1 [Example 25]
